Assay results reported in paper PMC7612957 (Science (New York, N.Y.), 2020).
Entries after “also recorded” stand apart in the source; their conditions may differ. Read-outs that look alike come from different tables or passages of the source. Where no end group is shown, it is not given here.

Key:
NRP1 b1 domain [1] = target: T1, NRP1 b1 domain (Homo sapiens, UniProt O14786); test: ITC binding to NRP1 b1 domain
NRP1 b1 domain [2] = target: T1, NRP1 b1 domain; test: ITC competition: EG00229 versus S1 CendR peptide for NRP1 b1; assay type: binding; conditions: pre-incubation with EG00229, N=3
SARS-CoV-2 = assay type: cell-based
NRP1 = conditions: selective NRP1 antagonist, binds the b1 CendR binding pocket; ref [14]; cited from earlier work
NRP1 b1 domain [3] = target: T2, NRP1 b1 domain; test: ITC
T2 chain: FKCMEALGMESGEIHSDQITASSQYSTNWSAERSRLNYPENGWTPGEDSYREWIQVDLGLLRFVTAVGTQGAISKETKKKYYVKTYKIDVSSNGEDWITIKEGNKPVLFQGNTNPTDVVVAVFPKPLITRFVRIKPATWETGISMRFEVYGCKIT

NRP1 b1 domain [4] = target: T2, NRP1 b1 domain; test: ITC

Molecule NSPRRAR [S1 CendR peptide] has a Kd (NRP1 b1 domain [1]; affinity for NRP1 b1 domain, pH 7.5, N=3, fit with 1-to-1 ratio binding) of 20.3 µM.

With `NC(N)=NCCC[C@H](NC(=O)c1sccc1NS(=O)(=O)c1cccc2nsnc12)C(=O)O` [EG00229] the Kd (NRP1 b1 domain [1]; read-out: Kd for NRP1 b1 domain, EG00229, pH 5.5, N=3, fit with 1-to-1 ratio binding) was 11 µM, the Kd (NRP1 b1 domain [1]; read-out: Kd for NRP1 b1 domain, EG00229, pH 7.5, N=3, fit with 1-to-1 ratio binding) was 5.1 µM and the “inhibition of S1 CendR peptide binding to b1” value (NRP1 b1 domain [2]) was “blocks S1 CendR peptide binding; also recorded: inhibited the direct binding between b1 and the S1 CendR peptide”. For the same molecule, the “reduction of SARS-CoV-2 infection by EG00229” value (SARS-CoV-2) was “reduced the efficiency of SARS-CoV-2 infection” and the “inhibition of VEGF-A binding” value (NRP1) was “inhibits VEGF-A binding”.

Work on NSPRRAR [S1 CendR peptide (679NSPRRAR685)] yielded a Kd (NRP1 b1 domain [3]) of 13 µM and a Kd (NRP1 b1 domain [4]) of 20.3 µM.
